These results are taken from US9382204B2, “Inhibitors targeting the DNA-binding domain of human STAT3 for treatment of metastatic cancers” (Indiana University Research and Technology Corporation, priority 2013, dated 2016).

What all share (type): cell-based, human
Test [1] relates to STAT3. As to the kind of experiment: STAT3 dimerization (STAT3c non-reducing PAGE, HA/FLAG co-immunoprecipitation) in H1299 cells. The conditions noted are these: 20 μM. An excerpt:
To eliminate the possibility that inS3-54 works by off-targeting to the SH2 domain, we tested if inS3-54 inhibits STAT3 dimerization using FLAG-STAT3c, which forms spontaneous homo-dimers via formation of intermolecular disulfide bond.
However, inS3-54 had no effect on production of dimeric STAT3c separated using non-reducing SDS-PAGE or non-denaturing PAGE (FIG. 6B) while S3I-201, a STAT3 inhibitor that binds to the SH2 domain, inhibited STAT3c dimerization (FIG. 6B). To confirm this observation, we performed a co-immunoprecipitation analysis of HA and FLAG-tagged STAT3.

The subject of test [2] is A549 and MDA-MB-231 cells. As to the kind of experiment: Luminescence-based glutathione alkylation assay (GSH-Glo). To be noted: 20 μM inS3-54 48 hours, 15 mM iodoacetamide 30 minutes. An excerpt: FIG. 5. Effect of inS3-54 glutathione level. […] (***p<0.001).
To further eliminate the possibility that inS3-54 has alkylating activity, we performed luminescence-based glutathione alkylation assay.

Test [3] concerns STAT3. As to the kind of experiment: STAT3-dependent luciferase reporter assay in MDA-MB-231-STAT3 stable cells. The conditions noted are these: 20 μM; for Rel. luciferase activity (%) 1: experiment 1, relative to DMSO; for Rel. luciferase activity (%) 2: experiment 2, relative to DMSO; for Rel. luciferase activity (%) 3: experiment 3, relative to DMSO; for Rel. luciferase activity (%) Mean: mean of experiments, relative to DMSO; for inhibition of luciferase expression compared to DMSO vehicle control: significant = p value less than 0.05. An outline of the steps:
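MDA-MB-231 cells stably carrying a STAT3-dependent luciferase reporter, exposed to compounds at 20 μM for 48 h (0.1% v/v DMSO final), then luciferase activity measured. Concentration-response treatments ran 72 h; STAT3-independent control used H1299 cells transiently transfected with p27-promoter luciferase, 48 h.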

As to `Cc1ccc(S(=O)(=O)OCC(=O)Nc2ccc(C(=O)O)c(O)c2)cc1` [Compound S3I-201, reference compound], in the test on STAT3 [1] (24 hrs, non-reducing SDS-PAGE or non-denaturing PAGE), the “production of dimeric STAT3c” value is “inhibited”. Also, the “co-immunoprecipitation between HA- and FLAG-tagged STAT3” value in the test with STAT3 [1] (H1299 cells) is reported as “inhibited”.
In the case of `NC(=O)CI` [iodoacetamide, reference compound], the glutathione level entry in test [2] is given as “significantly reduced”.
On to `Cc1ccc(N2C(=O)C(=Cc3ccc(-c4ccc([N+](=O)[O-])cc4)o3)C=C2c2ccccc2)cc1C` [Compound A5], for which, in the test on STAT3 [3], the “Rel. luciferase activity (%) 1” value turned out to be 113.5%, the “Rel. luciferase activity (%) 2” value came out at 109.3%, the “Rel. luciferase activity (%) 3” value stood at 92.2% and the “Rel. luciferase activity (%) Mean” value worked out at 105.0%.
On to `COc1ccc(N2C(=O)C(=Cc3ccc([N+](=O)[O-])cc3)C=C2c2ccccc2)cc1` [Compound A33], for which, in the test with STAT3 [3], the “Rel. luciferase activity (%) 1” value is on record as 33.8%, the “Rel. luciferase activity (%) 2” value is 92.3%, the “Rel. luciferase activity (%) 3” value is reported as 99.1% and the “Rel. luciferase activity (%) Mean” value was 75.1%.
With `COc1ccc(C=C2C=C(c3ccccc3)N(c3ccc(O)cc3)C2=O)cc1` [Compound A72], in the test with STAT3 [3], the “Rel. luciferase activity (%) 1” value was found to be 34.2%, the “Rel. luciferase activity (%) 2” value was 58.1%, the “Rel. luciferase activity (%) 3” value turned out to be 34.1% and the “Rel. luciferase activity (%) Mean” value worked out at 42.1%. Further, the “inhibition of luciferase expression compared to DMSO vehicle control” value (“inhibition … compared to DMSO vehicle control” below) in the test on STAT3 [3] is on record as “significantly inhibited”.
Regarding `COc1ccc(C=C2C=C(c3ccccc3)N(c3ccccc3Cl)C2=O)cc1` [Compound A57], in the test with STAT3 [3], the “Rel. luciferase activity (%) 1” value turned out to be 59.5%, the “Rel. luciferase activity (%) 2” value worked out at 97.9%, the “Rel. luciferase activity (%) 3” value came to 51.5% and the “Rel. luciferase activity (%) Mean” value was found to be 69.6%.
In the case of `CCN(CC)c1ccc(N2C(=O)C(=Cc3ccc([N+](=O)[O-])cc3)C=C2c2ccccc2)cc1` [Compound A45], in the test on STAT3 [3], the “Rel. luciferase activity (%) 1” value was 60.9%, the “Rel. luciferase activity (%) 2” value is listed as 89.3%, the “Rel. luciferase activity (%) 3” value turned out to be 71.6% and the “Rel. luciferase activity (%) Mean” value came to 73.9%. Besides, the “inhibition … compared to DMSO vehicle control” value in the test on STAT3 [3] is “significantly inhibited”.
Take `CC(=O)c1cccc(N2C(=O)C(=Cc3ccc(Cl)cc3)C=C2c2ccccc2)c1` [Compound A65]: in the test with STAT3 [3], the “Rel. luciferase activity (%) 1” value turned out to be 86.6%, the “Rel. luciferase activity (%) 2” value is recorded as 103.9%, the “Rel. luciferase activity (%) 3” value turned out to be 91.2% and the “Rel. luciferase activity (%) Mean” value was found to be 93.9%.
`O=C1C(=Cc2ccc(Cl)cc2)C=C(c2ccccc2)N1c1ccc(-c2ccccc2)cc1` [Compound A20]: in the test with STAT3 [3], the “Rel. luciferase activity (%) 1” value stood at 63.2%, the “Rel. luciferase activity (%) 2” value was determined as 85.1%, the “Rel. luciferase activity (%) 3” value is 63.8% and the “Rel. luciferase activity (%) Mean” value turned out to be 70.7%. For the same molecule, the “inhibition … compared to DMSO vehicle control” value in the test on STAT3 [3] was “significantly inhibited”.
Turning to `COc1ccc(C=C2C=C(c3ccccc3)N(c3ccccc3O)C2=O)cc1` [Compound A73], in the test with STAT3 [3], the “Rel. luciferase activity (%) 1” value is 72.9%, the “Rel. luciferase activity (%) 2” value turned out to be 97.8%, the “Rel. luciferase activity (%) 3” value is recorded as 103.4% and the “Rel. luciferase activity (%) Mean” value turned out to be 91.3%.
The like results for `COC(=O)c1cccc(N2C(=O)C(=Cc3ccc(Cl)cc3)C=C2c2ccccc2)c1` [Compound A19] were, in that order, 45.7%, 101.8%, 60.1% and 69.2%.
For `CC(=O)Nc1ccc(N2C(=O)C(=Cc3ccc([N+](=O)[O-])cc3)C=C2c2ccccc2)cc1` [Compound A47], in the test on STAT3 [3], the “Rel. luciferase activity (%) 1” value amounted to 106.8%, the “Rel. luciferase activity (%) 2” value is given as 108.8%, the “Rel. luciferase activity (%) 3” value is given as 43.3% and the “Rel. luciferase activity (%) Mean” value came to 86.3%.
